Test results taken from patent US20060025458A1, “Alkylammonium compounds as antifungal and antitrypanosomal agents” (University of Connecticut, priority 2004, published 2006).
Read-outs that look alike come from different tables or passages of the source. Values belong to the molecule of their own block, whether it stands above or below them.

Experiments:
[1] = tested on: promastigote form of L. major; experiment: Growth inhibition of Leishmania major promastigotes; type: cell-based; conditions: read-out: IC50 of choline analogs in Leishmania major, WT
Experimental: For those drugs, IC50 values were determined.

[2] = tested on: C. albicans strain BWP17; experiment: Growth inhibition of C. albicans in vitro; type: cell-based, Candida albicans; conditions: read-out: IC50, C. albicans proliferation
Experimental: G15, E24 and C35 inhibited at higher concentrations (>10 μM).

[3] = tested on: S. cerevisiae; experiment: Liquid growth inhibition assay of S. cerevisiae (OD600); type: cell-based, Saccharomyces cerevisiae; conditions: for Inhibition of S. cerevisiae growth (in words): structure-activity comparison, Examples 2-4
Experimental: Strains and Growth Conditions: Wild-type (BY4741: Mata his3Δ1 leu2Δ0 met15Δ0 ura3Δ0) and mutant (hnm1Δ, psd1Δ, cki1Δ, pem1Δ, ept1Δ, cpt1Δ, eki1Δ, psd2Δ, pct1Δ, ect1Δ, pem2Δ) S. cerevisiae strains used in this study were purchased from Research Genetics (Invitrogen, USA). These strains were grown on YPD (1% yeast extract, 2% dextrose and 2% peptone) or synthetic complete medium (SD, 1.7% yeast nitrogen base, 5% ammonium sulfate and 2% dextrose). The Nigerian strain of P. falciparum was propagated in human red blood cells at 4% hematocrit by the method of Trager and Jensen (1976). Plate growth assays were performed by growing wild-type and mutant yeast strains in YPD to mid-log phase. Cultures were serially diluted 1:10 starting with a density of 3×10^7 cells/ml. The growth of cells was monitored by spotting 3 μl of each dilution onto solid medium in the absence or presence of 5 μM of G25.
Twenty-one analogs including first, second and third generation (E2a, E6, E9, E13, E24, F4, G2, G4, G5, G14, GI5, G25, H5, L1, L4, M34, M53, MS1, T3 and T4) compounds (provided by Dr. Henri Vial, City, Country) were tested (FIG. 4). The choice of the compounds was such that they represent all possible structural features introduced during the optimization process for enhancing antimalarial activity as determined using the combinatorial chemistry techniques.
The antimalarial drug G25 inhibits the growth of Saccharomyces cerevisiae. […] Growth inhibition was assessed by measuring the OD600 and comparing it to that of the wild-type strain grown under the same conditions in the absence of the compound. […] This IC50 value is in the range of the predicted intracellular concentration of G25 in P. falciparum due to the accumulative properties inside the infected erythrocytes.

[4] = tested on: P. falciparum; conditions: Ancelin and Vial, 1986; read-out: IC50, lethal to P. falciparum in vitro; cited from earlier work
[5] = cited from earlier work
[6] = tested on: wild-type S. cerevisiae
Experimental: (§1) Uptake Assays: Yeast strains were grown in synthetic complete medium supplemented as required to maintain cell growth to an optical density of 0.55-0.65 at 600 nm. Cells were harvested by centrifugation at 3,200×g for 10 min at 4° C., washed twice in cold PBS and resuspended in nitrogen-free medium (SD without ammonium sulfate). […] After 3 min incubation at 30° C. with shaking, transport was immediately stopped by filtration through Whatman GF/C glass microfiber paper. The filters were washed three times with 5 ml ice-cold PBS, air dried, and analyzed in a scintillation counter. For time course uptake, 3-4×10^7 cells were incubated at 30° C. in 1 ml of nitrogen-free medium in the presence of 25 nM [^3H]-T16 (69 Ci/mmol) for different time periods (1, 2, 3, 4, 5, 7, 10 and 15 min) after which 5 ml of cold PBS was added to stop the reaction. Kinetic parameters were determined after 4 min of incubation at 30° C. in the presence of [^3H]-T16 at concentrations ranging from 25 nM to 75 μM (69 Ci - 23 mCi/mol). The samples were centrifuged at 4° C. for 10 min at 1,200×g, the supernatants were discarded and the cells were then resuspended in 5 ml of cold PBS. The reaction was terminated by filtering the cell suspension through GF/C membranes that were pretreated with 15 ml of 0.05% polyethyleneimine (PEI). The filters were washed twice with 5 ml of cold PBS, air dried, and analyzed in a scintillation counter. The cellular accumulation ratio (CAR) was calculated as previously described for T16 and G25 (Biagini, et al., 2003; Wengelnik, et al., 2002).

[7] = tested on: hnm1Δ S. cerevisiae strain lacking the choline transporter gene HNM1; experiment: [3H]-T16 transport in hnm1 deletion strain; type: cell-based, Saccharomyces cerevisiae; conditions: 4 min, 30° C.
Experimental: as §1, with “The samples were centrifuged at 4° C. for 10 min at 1,200×g, the supernatants were discarded and the cells were then resuspended in 5 ml of cold PBS. The reaction was terminated by filtering the cell suspension through GF/C membranes that were pretreated with 15 ml of 0.05% polyethyleneimine (PEI).” left out

[8] = tested on: P. falciparum; experiment: P. falciparum growth in vitro (antimalarial activity); type: cell-based, Plasmodium falciparum; conditions: predicted by QSAR and confirmed experimentally; read-out: IC50, in vitro anti-malarial activity
[9] = tested on: P. falciparum-infected erythrocytes; conditions: after 3 h incubation; cited from earlier work
[10] = tested on: choline transport in the wild-type strain of S. cerevisiae; experiment: [methyl-3H]-choline uptake in wild-type S. cerevisiae; type: cell-based, Saccharomyces cerevisiae; conditions: 20-fold excess over [methyl-3H]-choline
Experimental: as §1

Molecule: N=C(N)CCCCCCCCCCCCC(=N)N [M34]
IC50 [1]: 3570 nM

Molecule: CCCCCCCCCCCCCCCCCC[N+](C)(C)C.[Cl-] [E9]
IC50 [2]: ~1000 nM | IC50 [1]: 110 nM | Inhibition of S. cerevisiae growth (in words) [3]: inhibited | IC50 ([3]; wild-type W303 and BY4741, 10^5 cells/ml, YPD, 30° C., 24 h, read-out: IC50, growth of S. cerevisiae): 250 to 500 nM

Molecule: C[N+](C)(C)CCCCCCCCCC[N+](C)(C)C [DMA, decamethonium]
IC50 [4]: 1000 nM

IC50, growth of S. cerevisiae ([3]; wild-type W303 and BY4741, 10^5 cells/ml, YPD, 30° C., 24 h): high μM range
Molecule: CCCCCCCCCCCC[N+](C)(C)C.[Br-] [E6]
IC50 [1]: 2150 nM | Inhibition of S. cerevisiae growth (in words) [3]: not an effective drug

Molecule: Amphotericin B
half-life ([5]; IV infusion): about 2 weeks | renal impairment, share of patients ([5]; patients): 80%

Molecule: C[N+]1(C)CCOC(O)(c2ccc(-c3ccc(C4(O)C[N+](C)(C)CCO4)cc3)cc2)C1 (centres unmarked) [HC3, hemicholinium 3]
IC50 [4]: 4000 nM

Molecule: CCCCCCCCCC[N+](C)(C)C [DTMA, decyltrimethylammonium]
IC50 [4]: 700 nM

Molecule: CCCCCCCCCCCC[N+](C)(C)CCO [F4]
IC50 [1]: 4100 nM

Molecule: CCCCCCCCCCCC[N+](CCC)(CCC)CCC.[Br-] [E13]
IC50 [1]: 350 nM | Inhibition of S. cerevisiae growth (in words) [3]: no improvement

Molecule: C[N+](C)(CCO)CCCCCCCCCCCCCCCC[N+](C)(C)CCO.[Br-].[Br-] [H5]
IC50 [2]: ~5000 nM | Inhibition of S. cerevisiae growth (in words) [3]: better efficacy

Molecule: CCCCCCCCCCCC[N+]1(C)CCCC1.[Br-] [E24]
IC50 [1]: 700 nM

Molecule: CCc1sc[n+](CCCCCCCCCCCC[n+]2csc(CC)c2C)c1C.[I-].[I-] [T16, 1, 12-dodecanemethylene bis[4-methyl-5-ethylthiazolium]diiodide]
cellular accumulation ratio (CAR) in yeast [6]: less than 7 | Km ([6]; read-out: apparent Km of transport, wild-type, 4 min, 30° C., Lineweaver-Burk): 5.05 ± 0.26 µM | time during which uptake was linear ([6]; wild-type, 30° C., 25 nM): 12 min | maximum velocity Vmax of transport ([6]; wild-type, 4 min, 30° C.): 0.98±0.48 pmol/min×10^7 cells | Km [7]: 7.45 ± 1.98 µM | Vmax of transport [7]: 0.76±0.21 pmol/min/10^7 cells | IC50 [8]: ~16 nM | IC50 ([3]; wild-type strain BY4741, 1×10^4 cells/ml, liquid medium, 30° C., 16 h, read-out: IC50, inhibition of yeast growth): ~4000 nM | cellular accumulation ratio (CAR) [9]: ~500 | inhibition of choline transport [10]: 26%
